Here are results for 8 compounds from PubChem BioAssay (NCI).

One may read the GI50 as the concentration at which growth is held to half of that of the control. For orientation: TGI means the concentration giving total growth inhibition. Higher therefore signals lower sensitivity of the cells.

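1) Cells in 96-well plates. 2) Compound, 48 h, 5 concentrations. 3) Linear interpolation between surrounding doses. 4) Unreached endpoint = highest concentration. GI50 marks 50% less growth. TGI: concentration producing complete growth inhibition.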 Where a SMILES comes first, the peptide text is derived from it. [ ]: non-standard residue; d: D form. The star is where a group is joined. NMeF = CN[C@@H](Cc1ccccc1)C(=O)O; NMeV = CN[C@H](C(=O)O)C(C)C; Boc = CC(C)(C)OC(=O)*; OBn = c1ccc(CO*)cc1 Some results are limits rather than exact numbers.

Test systems include HCC-2998 colon; HCT-15 colon; HT29 colon; MALME-3M melanoma; MCF7 breast; RPMI-8226 leukemia; SF-295 CNS; SK-MEL-2 melanoma; SNB-75 CNS; UACC-62 melanoma.
Assay in all cases: DTP human tumour cell line panel, 48 h

Turning to `CC(C)[C@@H](C(=O)N1CCC[C@H]1C(=O)OCc1ccccc1)N(C)C(=O)[C@H](C(C)C)N(C)C(=O)[C@H](Cc1ccccc1)N(C)C(=O)[C@H](NC(=O)OC(C)(C)C)C(C)C` (Boc-[dV][NMeF][NMeV][NMeV]P-OBn), the GI50 is 68.9 µM in the assay on HCC-2998 colon, 4.6 µM with RPMI-8226 leukemia, greater than 100 µM in the assay with SF-295 CNS and greater than 100 µM in the assay with SNB-75 CNS. Also, the TGI is greater than 100 µM in the assay with HCC-2998 colon; greater than 100 µM with HCT-15 colon; greater than 100 µM with HT29 colon; greater than 100 µM in the assay on MALME-3M melanoma; greater than 50 µM in the assay on MCF7 breast; greater than 100 µM in the assay with RPMI-8226 leukemia. Also, the TGI with SF-295 CNS, with SK-MEL-2 melanoma, in the assay with SNB-75 CNS and with UACC-62 melanoma was greater than 100 µM each time.

For `COc1cc(/C=C2\C(=O)N(c3ccccc3)c3ccccc32)cc(OC)c1OC`, the GI50 in the assay on HCC-2998 colon was 10.6 µM; in the assay with HCT-15 colon, 4.37 µM; in the assay on HT29 colon it was 3.7 µM; in the assay on MALME-3M melanoma, 18.5 µM; in the assay with MCF7 breast it was 8.05 µM; with RPMI-8226 leukemia, 2.17 µM. In addition, the GI50 in the assay on SF-295 CNS was 17.8 µM; in the assay on SK-MEL-2 melanoma it was 11.7 µM; in the assay with SNB-75 CNS, 4.82 µM; in the assay with UACC-62 melanoma it was 7.12 µM. Besides, the TGI is 23.9 µM with HCC-2998 colon; 17.1 µM with HCT-15 colon; 13.9 µM with HT29 colon; 46.4 µM with MALME-3M melanoma; greater than 100 µM in the assay with MCF7 breast; 5.78 µM in the assay on RPMI-8226 leukemia. The TGI was found to be 81.3 µM in the assay on SF-295 CNS, 30.7 µM with SK-MEL-2 melanoma, 18.8 µM in the assay with SNB-75 CNS and 21.6 µM in the assay on UACC-62 melanoma.

As to `COc1ccc(CCN2CCC(Nc3nc4ccccc4n3Cc3ccc(F)cc3)CC2)cc1`, the GI50 was 0.46 µM with HCC-2998 colon; 1.51 µM in the assay on HCT-15 colon; 0.591 µM in the assay with HT29 colon; 1.72 µM in the assay with MALME-3M melanoma; 1.41 µM in the assay on MCF7 breast; 1.78 µM with RPMI-8226 leukemia. In addition, the GI50 with SF-295 CNS was 1.65 µM; with SK-MEL-2 melanoma it was 2.29 µM; in the assay with SNB-75 CNS, 1.24 µM; in the assay with UACC-62 melanoma, 1.41 µM. Further, the TGI with HCC-2998 colon came to 1.69 µM; with HCT-15 colon it was 3.16 µM; in the assay with HT29 colon, 2.36 µM; in the assay on MALME-3M melanoma, 3.4 µM; in the assay on MCF7 breast, 2.81 µM; in the assay on RPMI-8226 leukemia it was 4.73 µM. The TGI with SF-295 CNS turned out to be 3.26 µM; with SK-MEL-2 melanoma it was 4.78 µM; in the assay on SNB-75 CNS, 2.54 µM; in the assay on UACC-62 melanoma, 2.8 µM.

Consider `N=c1n(Cc2ccccc2)c(N)cc(=O)n1Cc1ccccc1`, for which the GI50 is 4.96 µM with HCC-2998 colon; 3.49 µM with HCT-15 colon; 3.81 µM with HT29 colon; 2.94 µM with MALME-3M melanoma; 2.73 µM with MCF7 breast; 3.58 µM in the assay with RPMI-8226 leukemia. The GI50 in the assay with SF-295 CNS is 2.68 µM; in the assay with SK-MEL-2 melanoma, 2.79 µM; with SNB-75 CNS, 3.08 µM; in the assay with UACC-62 melanoma, 3.55 µM. Also, the TGI was determined as 29.1 µM in the assay with HCC-2998 colon; 12.3 µM in the assay on HCT-15 colon; 12.8 µM with HT29 colon; 6.87 µM in the assay with MALME-3M melanoma; 18.4 µM in the assay on MCF7 breast; 18.1 µM in the assay with RPMI-8226 leukemia. For the same compound, the TGI came to 19.1 µM with SF-295 CNS, 7.18 µM in the assay on SK-MEL-2 melanoma, 16.1 µM in the assay with SNB-75 CNS and 12 µM in the assay with UACC-62 melanoma.

Consider `O=C(Nc1ccc(OCc2nnc(-c3ccccc3)o2)c(F)c1)Nc1ccc(Cl)c(C(F)(F)F)c1`, for which the GI50 in the assay on HCC-2998 colon was 2.58 µM; in the assay on HCT-15 colon it was 2.28 µM; in the assay on HT29 colon it was 2.33 µM; with MALME-3M melanoma, 1.78 µM; in the assay on MCF7 breast, 2.29 µM; with RPMI-8226 leukemia, 1.11 µM. Besides, the GI50 in the assay with SF-295 CNS is 2.18 µM; in the assay on SK-MEL-2 melanoma, 2.64 µM; in the assay with SNB-75 CNS, 1.64 µM; in the assay with UACC-62 melanoma it was 2.48 µM. Further, the TGI in the assay on HCC-2998 colon was found to be 7.83 µM; with HCT-15 colon, 14.8 µM; with HT29 colon, 9.9 µM; in the assay on MALME-3M melanoma, 4.98 µM; in the assay on MCF7 breast, 8.93 µM; with RPMI-8226 leukemia, 3.57 µM. Further, the total growth inhibition concentration (TGI) was 6.83 µM with SF-295 CNS, 7.12 µM in the assay with SK-MEL-2 melanoma, 5.08 µM in the assay with SNB-75 CNS and 6.91 µM in the assay with UACC-62 melanoma.

Regarding `OCC1OC2OC3C(CO)OC(OC4C(CO)OC(OC5C(CO)OC(OC6C(CO)OC(OC7C(CO)OC(OC1C(O)C2O)C(O)C7O)C(O)C6O)C(O)C5O)C(O)C4O)C(O)C3O` (centres undefined) (tested in a mixture with another compound), the TGI in the assay on HCC-2998 colon, in the assay with HCT-15 colon, in the assay with HT29 colon, in the assay with MALME-3M melanoma, in the assay on MCF7 breast and in the assay with RPMI-8226 leukemia was greater than 100 µM in each case. Also, the TGI with SF-295 CNS, in the assay with SK-MEL-2 melanoma, in the assay with SNB-75 CNS and with UACC-62 melanoma was greater than 100 µM each time.

On to `CCC(c1ccc2cc(O)ccc2c1)C(C)(C)C(=O)O` (centres undefined), for which the TGI in the assay on HCC-2998 colon, in the assay with HCT-15 colon, in the assay on HT29 colon, in the assay with MALME-3M melanoma, in the assay with MCF7 breast and in the assay on RPMI-8226 leukemia was greater than 100 µM in each case. The TGI in the assay on SF-295 CNS, in the assay on SK-MEL-2 melanoma, with SNB-75 CNS and with UACC-62 melanoma was greater than 100 µM each time.

For the compound `C=CC[C@@H]1/C=C(\C)C[C@H](C)C[C@H](OC)[C@H]2O[C@@](O)(C(=O)C(=O)N3CCCC[C@H]3C(=O)O[C@H](/C(C)=C/C3CC[C@@H](O)[C@H](OC)C3)[C@H](C)[C@@H](O)CC1=O)[C@H](C)C[C@@H]2OC` (some centres undefined), the GI50 with HCC-2998 colon was 18.8 µM; in the assay on HCT-15 colon it was 17.2 µM; in the assay with HT29 colon, 17.6 µM; in the assay with MALME-3M melanoma, 14.6 µM; in the assay with MCF7 breast it was 13.8 µM; with RPMI-8226 leukemia, 8.59 µM. Further, the GI50 in the assay on SF-295 CNS is 14.6 µM; in the assay with SK-MEL-2 melanoma, 17.4 µM; with SNB-75 CNS, 12.3 µM; in the assay with UACC-62 melanoma, 13.4 µM. Also, the TGI was 34.7 µM in the assay with HCC-2998 colon; 38.1 µM in the assay with HCT-15 colon; 33.5 µM in the assay on HT29 colon; 32.1 µM with MALME-3M melanoma; 29 µM in the assay on MCF7 breast; 32.2 µM in the assay with RPMI-8226 leukemia. Further, the TGI in the assay on SF-295 CNS was determined as 31.9 µM; with SK-MEL-2 melanoma it was 33.4 µM; in the assay with SNB-75 CNS it was 25.1 µM; in the assay with UACC-62 melanoma it was 27.6 µM.
